From US9326506B2, “Preparation method, agricultural composition and applications of natural brassinolide analogs” (CHENGDU NEWSUN CROPSCIENCE CO., LTD, priority 2012, dated 2016)

System: rice
Assay: Low temperature assay on rice seedlings
Format: in vivo
Protocol: According to a low temperature assay, we measured parameters including plant height, number of leaf, area of leaf, number of tiller, weight of root at low temperature to completely determine effects of the natural brassinolide analogues on the resistance to low temperature of a plant.
The natural brassinolide analogues, BR1, BR2, BR3, BR4, BR5 and BR6, used herein, were those prepared by the method of Example 1. Respectively the analogues were dissolved into 95% (V/V) ethanol solution, and then diluted with pure water to 1 mg/L, 0.1 mg/L, 0.01 mg/L, 0.001 mg/L and 0.0001 mg/L. In addition, pure water was used as a control.
After rice seeds were disinfected by using 5% sodium hypochlorite solution treatment, they were rinsed with distilled water until their pH>7, placed into a petri dish in a dark incubator, and cultured by using water at 30° C.±2° C. for 9 days. Then respectively the nine-day-old etiolated seedlings of rice were immersed in the above solutions containing different concentrations of the natural brassinolide analogues or pure water, and cultured at the temperature of 1° C., 2° C., 3° C., 4° C. and 5° C. for 24 hr. The parameters including plant height, area of leaf and weight of root after 3, 6, 9 and 12 days and number of leaf and number of tiller after 12 days were measured.

## CC[C@@H](C(C)C)[C@@H](O)[C@H](O)[C@@H](C)[C@H]1CCC2C3COC(=O)C4C[C@H](O)[C@H](O)C[C@]4(C)C3CC[C@@]21C (stereo partly shown) [BR2]
0.001 mg/l, 2 °C, 6 days
  Area of leaf: 11.6 cm^2
  Height: 7.1 cm
  Weight of root: 3.0 g
0.001 mg/l, 2 °C, 9 days
  Area of leaf: 12.1 cm^2
  Height: 7.1 cm
  Weight of root: 3.2 g
0.001 mg/l, 2 °C, 12 days
  Area of leaf: 13.1 cm^2
  Height: 7.3 cm
  Number of leaf: 3
  Number of tiller: 3
  Weight of root: 3.9 g
0.001 mg/l, 3 °C, 3 days
  Area of leaf: 10 cm^2
  Height: 7 cm
  Weight of root: 2.5 g
0.001 mg/l, 3 °C, 6 days
  Area of leaf: 12 cm^2
  Height: 7.1 cm
  Weight of root: 2.6 g
0.001 mg/l, 3 °C, 9 days
  Area of leaf: 12.4 cm^2
  Height: 7.3 cm
  Weight of root: 2.9 g
0.001 mg/l, 3 °C, 12 days
  Area of leaf: 13 cm^2
  Height: 7.4 cm
  Number of leaf: 3
  Number of tiller: 2
  Weight of root: 2.9 g
0.001 mg/l, 4 °C, 3 days
  Area of leaf: 10 cm^2
  Height: 7.1 cm
  Weight of root: 2.5 g
0.001 mg/l, 4 °C, 6 days
  Area of leaf: 12.1 cm^2
  Height: 7.3 cm
  Weight of root: 2.6 g
0.001 mg/l, 4 °C, 9 days
  Area of leaf: 13 cm^2
  Height: 7.5 cm
  Weight of root: 2.9 g
0.001 mg/l, 4 °C, 12 days
  Area of leaf: 13.5 cm^2
  Height: 7.5 cm
  Number of leaf: 3
  Number of tiller: 2
  Weight of root: 2.9 g
0.001 mg/l, 5 °C, 3 days
  Area of leaf: 10.2 cm^2
  Height: 7.2 cm
  Weight of root: 2.8 g
0.001 mg/l, 5 °C, 6 days
  Area of leaf: 14 cm^2
  Height: 7.5 cm
  Weight of root: 2.9 g
0.001 mg/l, 5 °C, 9 days
  Area of leaf: 15.4 cm^2
  Height: 7.8 cm
  Weight of root: 3.0 g
0.001 mg/l, 5 °C, 12 days
  Area of leaf: 16 cm^2
  Height: 8 cm
  Number of leaf: 3
  Number of tiller: 3
  Weight of root: 3.7 g
0.01 mg/l, 1 °C, 3 days
  Area of leaf: 10.1 cm^2
  Height: 7.0 cm
  Weight of root: 2.8 g
0.01 mg/l, 1 °C, 6 days
  Area of leaf: 11.6 cm^2
  Height: 7.2 cm
  Weight of root: 3.0 g
0.01 mg/l, 1 °C, 9 days
  Area of leaf: 12.4 cm^2
  Height: 7.4 cm
  Weight of root: 3.4 g
0.01 mg/l, 1 °C, 12 days
  Area of leaf: 13.6 cm^2
  Height: 7.5 cm
  Number of leaf: 3
  Number of tiller: 3
  Weight of root: 3.9 g
0.01 mg/l, 2 °C, 3 days
  Area of leaf: 10.1 cm^2
  Height: 7.1 cm
  Weight of root: 2.8 g
0.01 mg/l, 2 °C, 6 days
  Area of leaf: 11.1 cm^2
  Height: 7.2 cm
  Weight of root: 3.1 g
0.01 mg/l, 2 °C, 9 days
  Area of leaf: 12.5 cm^2
  Height: 7.5 cm
  Weight of root: 3.1 g
0.01 mg/l, 2 °C, 12 days
  Area of leaf: 13.4 cm^2
  Height: 7.5 cm
  Number of leaf: 3
  Number of tiller: 3
  Weight of root: 3.2 g
0.01 mg/l, 3 °C, 3 days
  Area of leaf: 10.2 cm^2
  Height: 7.1 cm
  Weight of root: 2.5 g
0.01 mg/l, 3 °C, 6 days
  Area of leaf: 12 cm^2
  Height: 7.2 cm
  Weight of root: 2.6 g
0.01 mg/l, 3 °C, 9 days
  Area of leaf: 12.6 cm^2
